Laboratory results taken from patent publication US20240390660A1, “APPARATUS, SYSTEMS AND METHODS FOR TRANSDERMAL DRUG DELIVERY, PERMEABILITY ENHANCEMENT AND AUGMENTATION” (University of Iowa Research Foundation, priority 2021, published 2024).
Structures can show the parent of a compound that is named as a salt.

How the values were obtained:
[1] = in vivo; cited from earlier work
[2] = In vivo pharmacokinetics studies, dMN + NLX-HCL gel with or without heating pod; parameters: species or system albino Hartley guinea pigs; settings: for enhancement in plasma concentration achieved with heat (vs no heat): 1 dMN; for plasma concentration, 2 dMN vs 1 dMN: non-heated
Excerpt: In Vivo Pharmacokinetics Studies. Preliminary in vivo data were collected in male (n=3) and female (n=2) albino Hartley guinea pigs (a common small animal model for dermal drug studies). All study procedures were IACUC approved. A crossover study design was used, dMN with and without use of heat (described in Table 5). The dorsal hair was clipped (not shaved) a day prior to studies. Either one or two dMN arrays (for a total of 100 or 200 dMNs total) were applied to the dorsal skin of the animal using gentle thumb pressure, and the backing of the dMN was removed.
The heat reaction was initiated by removing the protective tape cover. This was the same approach and conditions as used for the in vitro studies. […] Blood samples were collected at 0, 5, 10, 15, 30, 60, 75, 90, and 120 min. Plasma was separated from the blood immediately after collection and stored at −80° C. until analysis. A thermocouple probe in contact with the skin during the in vivo studies was used to record the skin temperature at the same timepoints as blood sampling.
The mixture was vortexed for 60 sec and centrifuged at 10,000 rpm for 15 min. The supernatant ethyl acetate layer was pipetted off and placed in a 5 mL glass tube under dry nitrogen to evaporate the organic layer. The dried residues were reconstituted with 100 μL 0.1% formic acid and analyzed using LC/MS.
Data Analysis. […] It is understood that when discussed herein, 1 dMN refers to a condition with a single, 100 microneedle array and 2 dMN refers to a condition with two arrays. All conditions were compared with and without the heating pod. […] For all analyses, p<0.05 was considered statistically significant.

In the case of `C=CCN1CC[C@]23c4c5ccc(O)c4O[C@H]2C(=O)CC[C@@]3(O)[C@H]1C5` [NLX, naloxone], the NLX population clearance [1] is listed as 91 L/h.

With `C=CCN1CC[C@]23c4c5ccc(O)c4O[C@H]2C(=O)CC[C@@]3(O)[C@H]1C5` [NLX-HCL, naloxone hydrochloride] the “enhancement in plasma concentration achieved with heat (vs no heat)” value (shortened to “enhancement … (vs no heat)”) ([2]; 5 min) was 2.4, the “enhancement … (vs no heat)” value ([2]; 15 min) was 1.3 and the “enhancement … (vs no heat)” value ([2]; 30 min) was 1.2. For the same compound, the “enhancement … (vs no heat)” value ([2]; 60 min) was 1.4, the “AUC with heat compared to the same conditions without heat” value ([2]; 2 dMN, 0-5, 0-15, 0-30 and 0-60 min, p<0.05) was “significantly higher” and the “enhancement of plasma concentrations by applied heat” value (“enhancement of plasma concentrations” below) ([2]; 2 dMN, 5 min) was 2.1 ×. For the same compound, the “enhancement of plasma concentrations” value ([2]; 2 dMN, 15 min) was 2.2 ×, the “enhancement of plasma concentrations” value ([2]; 2 dMN, 30 min) was 2.1 × and the “enhancement of plasma concentrations” value ([2]; 2 dMN, 60 min) was 1.8 ×. The “normalized plasma concentrations, heated vs dMN without heat” value ([2]; 2 or 1 dMN arrays) was “not significantly higher”, the “normalized plasma concentrations, 1 vs 2 dMN” value ([2]; heated or not heated, at 5, 15, 30 and 60 min) was “no statistically significant differences” and the “AUC 2 dMN vs 1 dMN” value ([2]; heated, all time ranges tested, p<0.05) was “significantly higher”. The “plasma concentration, 2 dMN vs 1 dMN” value ([2]; 5 min) was 2.1 ×, the “plasma concentration, 2 dMN vs 1 dMN” value ([2]; 15 min) was 1.6 × and the “plasma concentration, 2 dMN vs 1 dMN” value ([2]; 30 min) was 2.0 ×. The “plasma concentration, 2 dMN vs 1 dMN” value ([2]; 60 min) was 2.3 ×.
